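Five concentrations, 48 hours, 96-well plates. The concentration for 50% growth inhibition is given as GI50. TGI is the concentration that stops growth completely.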
Key:
Experiment in all cases: NCI anticancer screen, dose series, 48 h
[1] = tested on: A498 renal
[2] = tested on: HL-60(TB) leukemia
[3] = tested on: MCF7 breast
[4] = tested on: OVCAR-5 ovarian
[5] = tested on: RXF 393 renal
[6] = tested on: SK-MEL-2 melanoma
[7] = tested on: SK-MEL-5 melanoma
[8] = tested on: SW-620 colon
[9] = tested on: T-47D breast
[10] = tested on: UACC-62 melanoma

SMILES	TGI [1]	TGI [2]	TGI [3]	TGI [4]	TGI [5]	TGI [6]	TGI [7]	TGI [8]	TGI [9]	TGI [10]	GI50 [1]	GI50 [2]	GI50 [3]	GI50 [4]	GI50 [5]	GI50 [6]	GI50 [7]	GI50 [8]	GI50 [9]	GI50 [10]
O=C(O)C1(C(O)c2ccccc2)SCCCS1 (stereo not given)	> 10 µM	> 10 µM	> 10 µM	> 10 µM	> 10 µM	> 10 µM	> 10 µM	> 10 µM	> 10 µM	> 10 µM										
COC(=O)C(=O)C(C(=O)C(=O)Nc1ccc(C)c(C)c1)c1nc2ccc([N+](=O)[O-])cc2[nH]c1=O (stereo not given)	> 100 µM	> 100 µM	> 100 µM	> 100 µM	> 100 µM	> 100 µM	> 100 µM	> 100 µM	> 100 µM	> 100 µM										
O=C(O)CCC1NC(/C(=C/c2ccccc2O)NC(=O)c2ccccc2)OC1=O (stereo not given)	> 100 µM	> 100 µM	> 100 µM	> 100 µM	> 100 µM	> 100 µM	> 100 µM	> 100 µM	> 100 µM	> 100 µM										
CN(/N=C\c1ccc2ccccc2c1)C1=NCCCN1	28.8 µM	37.4 µM	26.4 µM	> 100 µM	35.4 µM	35 µM	24.6 µM	27.2 µM	> 100 µM	34.5 µM										
O=C1C=C/C(=C/[C@H]2SSC=C[C@]23C=CC(=O)C3)C1	38.3 µM	15.1 µM	> 100 µM	28.4 µM	29.9 µM	> 76.2 µM	38.9 µM	> 51.5 µM	> 100 µM	58.7 µM										
COc1cc2c(cc1OCCCOc1ccc(-c3cc4ccccc4c4ccccc34)cc1)N=C[C@@H]1CCCN1C2=O	2.16 µM	0.393 µM	0.971 µM	0.995 µM	0.624 µM	0.521 µM	2.49 µM	1.86 µM	0.598 µM	2.09 µM	0.894 µM	0.171 µM	0.172 µM	0.487 µM	0.24 µM	0.0467 µM	1.24 µM	0.513 µM	0.0887 µM	0.632 µM
C#CCOC(=O)C(=[N+]=[N-])C(=O)CC(C)C	> 10 µM	> 10 µM	> 10 µM	> 10 µM	> 10 µM	> 10 µM	> 10 µM	> 10 µM	> 10 µM	> 10 µM										
CCOC(=O)c1cc2c3c(cc(OC)c2[nH]1)N(C(=O)OCC)CC3	> 100 µM	> 100 µM	> 100 µM	> 100 µM	> 100 µM	> 100 µM	> 100 µM	> 100 µM	> 100 µM	> 100 µM										
CC1CCCN1CCCOC(=O)c1ccc(OC2C=CCCC2)cc1 (stereo not given)	> 100 µM	35.6 µM	49.6 µM	> 100 µM	52 µM	> 100 µM	35.2 µM	46.4 µM	34.4 µM	> 100 µM										
COc1ccc(/C=N/NC(=S)Nc2cc(C)ccc2OC)cc1	> 100 µM	66.7 µM	> 100 µM	73 µM	> 100 µM	43.8 µM	30 µM	> 100 µM	> 100 µM	> 100 µM										
S=c1[nH]n2c(COc3cc(Cl)c(OCc4nnc5sc(=S)[nH]n45)cc3Cl)nnc2s1	> 100 µM	> 100 µM	40.8 µM	> 100 µM	> 100 µM	> 100 µM	> 100 µM	> 100 µM	> 100 µM	83.9 µM										
CCOC(=O)c1cn(CC)c2ccc3c(c2c1=O)S(=O)(=O)C=C3	> 100 µM	> 100 µM	> 100 µM	> 100 µM	> 100 µM	> 100 µM	> 100 µM	> 100 µM	> 100 µM	> 100 µM										
Cc1cc(C)n2c(nc3ccccc32)c1C#N	> 100 µM	> 100 µM	> 100 µM	> 100 µM	> 100 µM	> 100 µM	> 100 µM	> 100 µM	> 100 µM	> 100 µM										
c1cc2c(cc1[C@@H]1OC[C@@H]3[C@H]1CO[C@H]3c1ccc3c(c1)OCO3)OCO2	> 100 µM	> 100 µM	> 100 µM	> 100 µM	89.3 µM	> 100 µM	33.6 µM	> 100 µM	> 100 µM	> 100 µM										
Cc1cc2occ(S(=O)(=O)NC(=O)Nc3ccc(Cl)cc3)c(=O)c2c(=O)o1	> 100 µM	> 100 µM	> 100 µM	> 100 µM	> 100 µM	> 100 µM	> 100 µM	> 100 µM	> 100 µM	> 100 µM										
CCCCCCCc1ccc(-c2nnc(N=Nc3ccc(OCCCCC)cc3)s2)s1	> 100 µM	> 100 µM	> 100 µM	> 100 µM	> 100 µM	> 100 µM	> 100 µM	> 100 µM	> 100 µM	> 100 µM										
